From PubChem BioAssay (NCI)
“And” between values parts separate entries of the source, which are not always exact repeats. Equal values may be shown once.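 Growth conditions: 96-well plates. Treatment: test compound, 48 hours, 5 concentrations. Analysis: linear interpolation between bracketing concentrations; unreached endpoints set to highest concentration. The concentration for 50% growth inhibition is given as GI50. At the TGI there is no net growth.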

Assays:
Assay in all cases: NCI tumour cell line growth inhibition, 48 h
CCRF-CEM leukemia = test system: CCRF-CEM leukemia
MALME-3M melanoma = test system: MALME-3M melanoma
SNB-19 CNS = test system: SNB-19 CNS
SK-MEL-28 melanoma = test system: SK-MEL-28 melanoma
LOX IMVI melanoma = test system: LOX IMVI melanoma
SR leukemia = test system: SR leukemia
SK-MEL-2 melanoma = test system: SK-MEL-2 melanoma
SF-539 CNS = test system: SF-539 CNS
SK-MEL-5 melanoma = test system: SK-MEL-5 melanoma
MDA-MB-435 = test system: MDA-MB-435

Structure (SMILES)	TGI (CCRF-CEM leukemia) [µM]	TGI (MALME-3M melanoma) [µM]	TGI (SNB-19 CNS) [µM]	TGI (SK-MEL-28 melanoma) [µM]	TGI (LOX IMVI melanoma)	TGI (SR leukemia) [µM]	TGI (SK-MEL-2 melanoma)	TGI (SF-539 CNS)	TGI (SK-MEL-5 melanoma)	GI50 (CCRF-CEM leukemia) [µM]	GI50 (MALME-3M melanoma) [µM]	GI50 (SNB-19 CNS) [µM]	GI50 (SK-MEL-28 melanoma) [µM]	GI50 (LOX IMVI melanoma) [µM]	GI50 (MDA-MB-435) [µM]	TGI (MDA-MB-435) [µM]	GI50 (SK-MEL-5 melanoma) [µM]	GI50 (SK-MEL-2 melanoma) [µM]	GI50 (SF-539 CNS) [µM]	GI50 (SR leukemia) [µM]
COC(=O)/C(C#N)=C1\CCC(O)N1 (stereo not drawn)	> 100	> 100	> 100	> 100	> 100 µM	> 100	> 100 µM	> 100 µM												
CN(C)C(=S)/N=c1\ss/c(=N\C(=S)N(C)C)n1-c1ccc(Cl)c(Cl)c1	> 100	> 100	> 100	> 100	> 100 µM	> 100	> 100 µM	> 100 µM	> 100 µM											
COC(=O)/C(C)=C/[N+](=O)[O-]	6.48	31.4	32.9		38.9 µM		38.7 µM	33.2 µM	47.3 µM											
CC1=NN(C(=O)CC(=O)N(C(=O)c2ccccc2Cl)c2ccc(C)cc2)C(=O)C1N=Nc1ccc([N+](=O)[O-])cc1 (stereo not drawn)	> 70.7	> 100	> 100	> 100	> 57.4 µM	> 100	> 100 µM	51.4 µM	> 100 µM											
O=C(COc1ccc(/C=C2\CSc3ccccc3C2=O)cc1)Nc1nccs1	9.09	31.4	26.2	24.1	3.41 µM		23.3 µM	29.7 µM	23.6 µM	2.01	15	13.4	11.8	1.77	3.31	15.1	11.5	11.3	15	
COc1ccc2c(O)cc3c(c2c1)[C@H](CCl)CN3C(=O)c1cc2cc(NC(=O)CCN3CCOCC3)ccc2[se]1		< 0.001	0.233	< 0.001	0.0101 µM	> 10	< 0.001 µM	0.00264 µM	< 0.001 µM	< 0.001	< 0.001	< 0.001	< 0.001	< 0.001			< 0.001	< 0.001	< 0.001	< 0.001
O=S1OC2(c3ccccc3-c3ccccc32)c2ccccc21 (stereo not drawn)	> 100	> 100	> 100	> 100	> 100 µM	> 100		> 100 µM	> 100 µM											
Nc1nc(CCl)nc(Nc2ccccc2)n1	4.58	33.7	> 100	33.2		33.7	44.1 µM	70.7 µM	36.5 µM											
O=C(Nc1ccc(-n2cc(-c3ccncc3)c(-c3ccc(Cl)c(O)c3)n2)cc1)Nc1ccc(Cl)c(C(F)(F)F)c1	8.79		4.7	3.45	2.75 µM		3.27 µM	3.48 µM	2.95 µM	1.53		1.72	1.63	1.44	1.32	2.91	1.53	1.7	1.31	
Cc1cc(NS(=O)(=O)c2ccc(Nc3c4ccccc4nc4c(C(=O)NCCN(C)C)cccc34)cc2)no1	11.1		13	48.8	31.3 µM	> 100		15.2 µM	11.8 µM											
CC(C)CCCC(C)[C@H]1CCC2[C@H]3C(CC[C@@]21C)[C@@]1(C)CCC=C[C@]12C[C@@H]2[C@@H]3O (stereo partly drawn)	> 100	> 100	> 100	> 100	> 100 µM	> 100		> 100 µM	> 100 µM											
N.N.N.N.[Cl-].[Co+3].[N-]=[N+]=[N-].[N-]=[N+]=[N-]	> 100	> 100	> 100	> 100	> 100 µM		> 100 µM	> 100 µM	> 100 µM	91.6	57.9	> 100	60.3	> 100			> 100	> 100	48.8	
CCCCOC(=O)NC(=O)c1cn(CCCOC(=O)NCCCCCCNC(=O)OCCCn2cc(C(=O)NC(=O)OCCCC)c(=O)[nH]c2=O)c(=O)[nH]c1=O		> 100	> 100	> 100	> 100 µM	> 100	> 100 µM	> 100 µM	> 100 µM											
COc1ccc(-c2ccc(/C=N/n3c(C)n[nH]c3=S)o2)c([N+](=O)[O-])c1	> 100	> 100	> 100	> 100				> 100 µM		> 100	54.1	> 100	> 100		> 100	> 100			39.4	
CN(CCCNC(=O)Cc1ccc2ccc3cccc4ccc1c2c34)CCCNc1cc(-c2ccc3ccccc3c2)nc2ccccc12			3.18	3.32			3.55 µM	2.98 µM	3.01 µM			1.74	1.91		1.44	3.05	1.64	1.82	1.54	
CC1(C)O/C(=C\c2ccccc2)C(=O)/C(=C/c2ccccc2)O1	44.4	> 100	> 100	> 100	> 100 µM	75.3	56.7 µM	> 100 µM	27.9 µM											
CCOC(=N)CC(=O)Nc1cccc(C)c1C	> 100	> 100	> 100	> 100	> 100 µM	> 100	> 100 µM	> 100 µM	> 100 µM											
Cc1cc(C2CC(O)C(CO)O2)cc2c(=O)[nH]c(N)nc12 (stereo not drawn)	> 100		> 100	> 100	> 100 µM		> 100 µM	> 100 µM	> 100 µM	> 100		> 100	> 100	> 100	> 100	> 100	> 100	> 100	> 100	
O=c1[nH]cnc2cccc(Cl)c12	> 100	> 100	> 100	> 100		> 100	> 100 µM	> 100 µM	> 100 µM											
C=CCNC(=O)N(CCC)CCCCC(NC(C)=O)C(=O)NCc1ccccc1 (stereo not drawn)	> 100	> 100	> 100	> 100	> 100 µM		> 100 µM	> 100 µM	> 100 µM											

Structure (SMILES)	TGI (CCRF-CEM leukemia) [µM]	TGI (MALME-3M melanoma) [µM]	TGI (SNB-19 CNS) [µM]	TGI (SK-MEL-28 melanoma) [µM]	TGI (LOX IMVI melanoma)	TGI (SR leukemia) [µM]	TGI (SK-MEL-2 melanoma)	TGI (SF-539 CNS)	TGI (SK-MEL-5 melanoma)	GI50 (CCRF-CEM leukemia) [µM]	GI50 (MALME-3M melanoma) [µM]	GI50 (SNB-19 CNS) [µM]	GI50 (SK-MEL-28 melanoma) [µM]	GI50 (LOX IMVI melanoma) [µM]	GI50 (MDA-MB-435) [µM]	TGI (MDA-MB-435) [µM]	GI50 (SK-MEL-5 melanoma) [µM]	GI50 (SK-MEL-2 melanoma) [µM]	GI50 (SF-539 CNS) [µM]	GI50 (SR leukemia) [µM]
O=C(Nc1cc(Cl)ccc1Cl)C(=O)C(c1cnc2ccccc2n1)[N+](=O)[O-] (stereo not drawn)	> 100	> 100	> 100	> 100	> 100 µM	> 100		> 100 µM	> 100 µM											
Cc1ccc(C2(O)CC(c3ccc([N+](=O)[O-])o3)=NN2C(=O)COc2ccc(Cl)cc2)cc1 (stereo not drawn)		27.1	67.3	22.4	19 µM	6.52	16.1 µM	15.4 µM	6.6 µM											
O=C(Nc1ccc(Br)cc1)c1ccc(Cl)c(Cl)c1	> 100		> 100	> 100	7.67 µM	> 100	> 29.8 µM	> 100 µM	> 100 µM	4.81		3.87	3.93	2.56			3.45	3.59	4.01	4.35
Oc1cn(-c2ccc(Cl)cc2)nc1-c1n[nH]c(=S)n1C1CCCCC1	> 100	> 100	> 44.8	> 100	> 100 µM	> 100	> 100 µM	1.11 µM	12.3 µM	0.252		0.416	0.639	0.451			0.25	> 52.3	0.312	< 0.0413
Nc1ccn(C2(CO)C=C(CO)C(O)C2O)c(=O)n1 (stereo not drawn)		> 25.8	> 25.8	> 25.8		> 25.8	> 25.8 µM	> 25.8 µM	> 25.8 µM											
COc1cccc(/C(COc2ccc3c(c2)oc(=O)c2cc(OC)ccc23)=N/O)c1	> 100	> 100	> 100	> 100	> 100 µM		> 100 µM	81.5 µM	80.5 µM	11.4	> 100	3.66	4.28	7.14			4.95	6.62	6.55	
COC(=O)/C(C=O)=C/Sc1ccccc1	> 100		> 100	59.2	23 µM	> 100	91.8 µM	33.2 µM	85.2 µM											
Cc1cc[c-]cc1.Fc1c[c-]c(-c2ccccn2)c(F)c1.[Pt+2].c1ccc(P(C[PH+](c2ccccc2)c2ccccc2)c2ccccc2)cc1		5.06	12.8	10.3	6.24 µM		6.61 µM	12.4 µM	3.05 µM		1.7	2.81	2.86	2.19	2.18	6.2	1.66	2.36	3.34	
C[n+]1cc(C(O)c2ccc3c(c2)OCO3)c2ccccc2c1 (stereo not drawn)	> 100	65	> 100		> 100 µM		96.1 µM	> 100 µM	44.2 µM											
CN[C@@H](C)[C@H](NC)c1ccccc1	> 100	> 100	> 100	> 100	> 100 µM			> 100 µM	> 100 µM											
COc1cccc(-n2c3nc(=O)n(C)c(=O)c-3nc3ccccc32)c1	79.1	29.8	74.3	61.4			56 µM	27.8 µM	13.8 µM											
CC(=O)c1sc(-c2nc(C)c(C(=O)/C=C\c3ccc(/C=C\C(=O)c4sc(-c5nc(C)c(C(C)=O)s5)nc4C)cc3)s2)nc1C	> 100	> 100	> 100	> 100	> 100 µM	> 100	> 100 µM	> 100 µM												
CC12CCCCC1(C)C2Sc1ccccc1 (stereo not drawn)	44.4	> 100	> 100	> 100	> 61 µM		50.7 µM	> 100 µM	> 63.5 µM											
COC(=O)CCC(=O)CC1CC(=O)C2CCCN12 (stereo not drawn)	> 100	> 100	> 100	> 100	> 100 µM	> 100	> 100 µM	> 100 µM	> 100 µM											
CC(C)(C=O)CC(C#N)/C(=N\NC(N)=O)C(=O)Nc1ccccc1C(N)=O (stereo not drawn)	> 100	> 100	> 100	> 100	> 100 µM	> 100	> 100 µM	> 100 µM	> 100 µM											
COc1ccc(C2c3cc(OC)c(OC)cc3C(Cc3ccc([N+](=O)[O-])cc3)C2c2ccc([N+](=O)[O-])cc2)cc1OC (stereo not drawn)	> 100	> 100	> 100	> 100	> 100 µM		> 100 µM	> 100 µM	> 100 µM											
C=C1C[C@]23CCC4C(C)(C)C(=O)CC[C@]4(C)C2C[C@H]1C(O)C3=O (stereo partly drawn)	> 75	> 75	> 75	> 75	> 75 µM	> 75	> 75 µM	> 75 µM	> 75 µM											
C[C@@]12CCCc3coc(c31)C(=O)c1cc3c(cc12)C(=O)C=CC3=O	7.74	> 1	> 100	> 1	> 1 µM and 35.1 µM		> 1 µM and 29 µM	> 1 µM and 30.1 µM	> 1 µM and 30.9 µM			> 1		> 1			> 1	> 1	< 1	
Cc1cc(C)c(C2[C@H]3C(=O)N(c4ccc(Cc5ccc(N6C(=O)[C@@H]7ON(c8ccccc8)C(c8c(C)cc(C)cc8C)[C@@H]7C6=O)cc5)cc4)C(=O)[C@H]3ON2c2ccccc2)c(C)c1 (stereo partly drawn)	> 100	> 100	> 100	> 100	> 100 µM	> 100	> 100 µM	> 100 µM	> 100 µM											
